Test results published in patent publication EP1179529A1, “NOVEL HYDROXAMIC ACID DERIVATIVES” (Daiichi Fine Chemical Co., Ltd., priority 1999, dated 2000).
Counter-ions that a name gives are not always drawn.

What was measured:
MMP-1 = target: T1, MMP-1 (Homo sapiens, UniProt P03956); experiment: Assay for inhibition of collagenase; assay type: biochemical; details: human fibroblast collagenase activated with APMA; substrate fluorescein-labeled bovine type I collagen; 35°C, 2 hours, pH 7.5
T1 sequence (P03956 100-469): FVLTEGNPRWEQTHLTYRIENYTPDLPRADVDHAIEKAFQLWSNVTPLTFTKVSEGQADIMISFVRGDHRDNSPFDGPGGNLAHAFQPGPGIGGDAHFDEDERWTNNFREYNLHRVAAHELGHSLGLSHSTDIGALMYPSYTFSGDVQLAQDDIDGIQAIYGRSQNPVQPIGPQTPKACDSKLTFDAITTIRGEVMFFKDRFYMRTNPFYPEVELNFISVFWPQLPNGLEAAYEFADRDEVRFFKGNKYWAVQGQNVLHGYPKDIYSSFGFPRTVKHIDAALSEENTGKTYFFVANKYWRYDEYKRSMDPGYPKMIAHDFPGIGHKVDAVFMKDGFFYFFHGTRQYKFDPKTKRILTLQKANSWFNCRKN
Description: (§1) Described below are assays for biological activities of the compounds according to the present invention, formulations, dosage forms and dosage levels thereof, and miscellaneous matters. The efficacy of the compounds represented by the formula (I) according to the present invention as inhibitors of human fibroblast collagenase (metalloproteinase involved in the breakdown of tissues) is determined by a procedure based on the method of Y. Murawaki et al., Journal of Hepatology, 18, p328-334 (1993). The efficacy of the compounds (I) of this invention as inhibitors of human fibroblast stromelysin is determined by a procedure based on the method of S. S. Twining, Anal. Biochem., 143, p30 (1984). The assay results obtained are shown hereinbelow, together with biological examples which illustrate embodiments of the assay protocols.
The efficacy of compounds of the present invention to act as inhibitors of human fibroblast collagenase was determined by the procedure of Y. Murawaki et al. (Journal of Hepatology, 18, p.328-334, 1993).
Procollagenase was activated by incubation with 2 mM 4-aminophenylmercuric acetate (APMA) at 35°C for 2 hours. The inhibition was assayed using, as a substrate, fluorescein-labeled bovine type I collagen. To a solution of the substrate (0.5 mg/ml) in a 50 mM Tris-HCl buffer, pH 7.5, containing 0.4M aqueous sodium chloride and 10 mM aqueous calcium chloride was added the activated collagenase. The resultant solution was incubated at 35°C for 2 hours. The digestion of the substrate with the enzyme was stopped by addition of 80 mM o-phenanthroline, followed by addition of a porcine elastase solution formed by dissolving 25µ g/ml porcine elastase in the aforementioned Tris-HCl buffer. The mixture was incubated at 37°C for 10 minutes. To the resulting solution was added 70% ethanol, and a 170 mM Tris-HCl buffer, pH 9.5, containing 0.67 M aqueous sodium chloride. Undigested substrates were precipitated by centrifugation at 3000 x g for 20 minutes. The supernatant was collected and the fluorescence was read using an excitation wavelength of 495 nm and an emission wavelength of 520 nm. The inhibitory potency of the compounds was calculated. IC50 represents the concentration of each test compound requited for 50% inhibition of cleavage of substrates by the enzyme alone. The compounds of the present invention have potent inhibitory activities (Table 1).

MMP-3 = MMP-3 (Homo sapiens, UniProt P08254); experiment: Assay for inhibition of stromelysin; assay type: biochemical; details: human fibroblast stromelysin activated with human plasmin; substrate fluorescein-labeled casein; 37°C, 2 hours, pH 7.8
Description: as §1
The efficacy of compounds of the present invention to act as inhibitors of human fibroblast stromelysin was determined by the procedure of Twining (Anal. Biochem., 143, p.30, 1984).
Prostromelysin was activated by incubation with 20µ g/ml human plasmin at 37°C for 2 hours, and the reaction was stopped by addition of 2.8 mg/ml aqueous diisopropyl fluorophosphate. The inhibition was assayed using, as a substrate, fluorescein-labeled casein. To a solution of the substrate (1 mg/ml) in a 50 mM Tris-HCl buffer, pH 7.8, containing 10mM aqueous calcium chloride was added the activated stromelysin. The resultant solution was incubated at 37°C for 2 hours. The digestion of the substrate with the enzyme was stopped by addition of 5% trichloroacetic acid. Undigested substrates were precipitated by centrifugation at 3000 x g for 20 minutes. The supernatant was collected, followed by addition of a 0.5M Tris-HCl buffer, pH 8.5. The fluorescence was read using an excitation wavelength of 495 nm and an emission wavelength of 520 nm. The inhibitory potency of the compounds was calculated. IC50 represents the concentration of each test compound requited for 50% inhibition of cleavage of substrates by the enzyme alone. […]

Sequence of MMP-3 (P08254 100-477): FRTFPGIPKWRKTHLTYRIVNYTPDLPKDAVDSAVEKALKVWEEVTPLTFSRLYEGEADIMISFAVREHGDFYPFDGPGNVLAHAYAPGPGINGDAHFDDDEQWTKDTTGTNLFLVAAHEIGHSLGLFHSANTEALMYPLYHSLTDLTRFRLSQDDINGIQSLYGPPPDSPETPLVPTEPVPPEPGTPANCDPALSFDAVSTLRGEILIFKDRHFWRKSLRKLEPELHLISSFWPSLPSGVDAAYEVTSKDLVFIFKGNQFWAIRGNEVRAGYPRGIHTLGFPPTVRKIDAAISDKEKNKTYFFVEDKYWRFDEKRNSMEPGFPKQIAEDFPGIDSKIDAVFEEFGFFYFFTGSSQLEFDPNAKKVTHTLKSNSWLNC

SMILES | IC50 (MMP-1) [nM] | IC50 (MMP-3) [nM]
CC(C)C[C@@H](C(=O)N[C@@H](Cc1ccc(CN)cc1)C(=O)O)[C@H](CCCc1ccccc1)C(=O)NO [Compound No. 11, N^a-[4-(N-Hydroxyamino)-2(R)-isobutyl-3(S)-(3-phenylpropyl)-succinyl]-L-4'-aminomethylphenylalanine] | 418 | 29
CC(=N)NCc1ccc(C[C@H](NC(=O)[C@H](CC(C)C)[C@H](CCCc2ccccc2)C(=O)NO)C(=O)O)cc1 [Compound No. 10, N^a-[4-(N-Hydroxyamino)-2(R)-isobutyl-3(S)-(3-phenylpropyl)-succinyl]-L-4'-acetimidoyliminomethylphenylalanine · 1 acetate] | 500 | 70
CC(C)C[C@@H](C(=O)N[C@@H](Cc1ccc(CN)cc1)C(=O)O)[C@H](CCCc1ccccc1)C(=O)NO [Compound No. 8, N^a-[4-(N-Hydroxyamino)-2(R)-isobutyl-3(S)-(3-phenylpropyl)-succinyl]-L-4'-aminomethylphenylalanine · 1 hydrochloride] | 340 | 
COC(=O)[C@H](Cc1ccc(CNC(C)=N)cc1)NC(=O)[C@H](CC(C)C)[C@H](CCCc1ccccc1)C(=O)NO [Compound No. 9, N^a-[4-(N-Hydroxyamino)-2(R)-isobutyl-3(S)-(3-phenylpropyl)-succinyl]-L-4'-acetimidoyliminomethylphenylalanine methyl ester 1 hydrochloride] | 30 | 20
COC(=O)[C@H](Cc1ccc(CN)cc1)NC(=O)[C@H](CC(C)C)[C@H](CCCc1ccccc1)C(=O)NO [Compound No. 7, N^a-[4-(N-Hydroxyamino)-2(R)-isobutyl-3(S)-(3-phenylpropyl)-succinyl]-L-4'-aminomethylphenylalanine methyl ester · 1 acetate] | 167 | 
